Test results from patent US4282248A, “Pinene derivatives and pharmaceutical compositions containing the same” (priority 1978, dated 1981).

Tests used:
Assay type in all cases: in vivo
[1] = acetic acid induced writhing test (mouse writhing); details: for ED50: Mus musculus
Experimental: (§1) The analgetic activity was tested by the acetic acid induced writhing test (Sofia et al., J. Pharmacol.Expt.Therap. 18, 646, 1973), by the tail flick test (Grotto et al., Arch Intern.Pharmacodyn. 170, 257, 1967) and by the foot pressure test (Randall and Selito, Arch, Int. Pharmacodyn. 409, 1957). The central nervous system action was tested by the mouse ring test (Pertwee, Brit. J. Pharmacol. 46, 753, 1972).

[2] = tail flick test (mouse tail flick); details: for ED50: Mus musculus
Experimental: as §1

[3] = foot pressure test (rat foot pressure); details: for ED50: Rattus norvegicus
Experimental: as §1

Compound | Mouse writhing ED50 [1] [mg/kg] | Mouse tail flick ED50 [2] | Rat foot pressure ED50 [3] | ED50 [1] [mg/kg] | ED50 [2] [mg/kg] | ED50 [3] [mg/kg]
CCCCCCC(C)(C)c1cc(OC(C)=O)c(C2C=C(COC(C)=O)C3CC2C3(C)C)c(OC(C)=O)c1 (single isomer, unassigned) [VIIIa(-), 4-trans-[2-(5-(1,1-dimethylheptyl)-resorcyl)]-10-hydroxy-pin-2-ene, triacetate] | 18 | 30 mg/kg | 50 mg/kg | – | – | –
CCCCCCC(C)(C)c1cc(O)c(C2C=C(CO)C3CC2C3(C)C)c(O)c1 (single isomer, unassigned) [VIIa(-), 4-trans-[2-(5-(1,1-dimethylheptyl)-resorcyl)]-10-hydroxy-pin-2-ene] | 7 | 6 mg/kg | 25 mg/kg | – | – | –
CCCCCCC(C)(C)c1cc(OC(C)=O)c(C2C=C(COC(=O)C(C)(C)C)C3CC2C3(C)C)c(OC(C)=O)c1 (single isomer, unassigned) [VIIIc(+)] | – | – | – | 25 | > 50 | > 50
CCCCCCC(C)(C)c1cc(OC(C)=O)c(C2C=C(COC(C)=O)C3CC2C3(C)C)c(OC(C)=O)c1 (single isomer, unassigned) [VIIIa(+), 4-Trans-[2-(5-(1,1-dimethylheptyl)-resorcyl)]-10-hydroxy-pin-2-ene triacetate] | – | – | – | 18 | 50 | 50
CCCCCC(C)C(C)c1cc(O)c(C2C=C(COC(=O)C(C)(C)C)C3CC2C3(C)C)c(O)c1 (single isomer, unassigned) [VId(+), 4-trans-[2-(5-(1,2-dimethylheptyl)-resorcyl)]-10-hydroxy-pin-2-ene, 10 pivalate] | – | – | – | 10 | – | 30
CCCCCC(C)C(C)c1cc(OC(C)=O)c(C2C=C(COC(C)=O)C3CC2C3(C)C)c(OC(C)=O)c1 (single isomer, unassigned) [VIIIb(-), 4-trans-[2-(5-(1,2-dimethylpheptyl)]-resorcyl)-10-hydroxy-pin-2-ene, triacetate] | 10 | 30 mg/kg | 50 mg/kg | – | – | –
CCCCCC(C)C(C)c1cc(O)c(C2CC(C)C3CC2C3(C)C)c(O)c1 (single isomer, unassigned) [Xb(-), 4-Trans-[-(5-(1,2-dimethylheptyl)-resorcyl)]-pinane] | – | – | – | 6 | ~50 | ~50
CCCCCCC(C)(C)c1cc(O)c(C2C=C(COC(=O)C(C)(C)C)C3CC2C3(C)C)c(O)c1 (single isomer, unassigned) [VIc(+)] | – | – | – | 10 | – | 30
CCCCCCC(C)(C)c1cc(O)c(C2C=C(COC(=O)C(C)(C)C)C3CC2C3(C)C)c(O)c1 (single isomer, unassigned) [VIc(-)] | < 10 | 10 mg/kg | 30 mg/kg | – | – | –
CCCCCC(C)C(C)c1cc(O)c(C2C=C(COC(C)=O)C3CC2C3(C)C)c(O)c1 (single isomer, unassigned) [VIb(+)] | – | 30 mg/kg | – | 10 | – | 35
CCCCCC(C)C(C)c1cc(OC(C)=O)c(C2C=C(COC(C)=O)C3CC2C3(C)C)c(OC(C)=O)c1 (single isomer, unassigned) [VIIIb(+), 4-Trans-[2-(5-(1,2-dimethylheptyl-resorcyl)]-10-hydroxy-pin-2-ene, triacetate] | – | – | – | 10 | 50 | 50
CCCCCCC(C)(C)c1cc(O)c(C2CC(C)C3CC2C3(C)C)c(O)c1 (stereo not drawn) [Xa(+), 4-Trans-[2-(5-(1,1-dimethylheptyl)-resorcyl)]-pinane] | 15 | ~ 50 mg/kg | ~ 50 mg/kg | – | – | –
CCCCCC(C)C(C)c1cc(O)c(C2CC(C)C3CC2C3(C)C)c(O)c1 (stereo not drawn) [Xb(+), 4-Trans-[-(5-(1,2-dimethylheptyl)-resorcyl)]-pinane] | 6 | ~ 50 mg/kg | ~ 50 mg/kg | – | – | –
CCCCCCC(C)(C)c1cc(O)c(C2CC(C)C3CC2C3(C)C)c(O)c1 (stereo not drawn) [Xa(-), 4-trans-[2-(5-(1,1-dimethylheptyl)-resorcyl)]-pinane] | 9 | ~ 50 mg/kg | ~ 50 mg/kg | – | – | –
CCCCCC(C)C(C)c1cc(OC(C)=O)c(C2C=C(COC(=O)C(C)(C)C)C3CC2C3(C)C)c(OC(C)=O)c1 (single isomer, unassigned) [VIIId(-), 4-trans-[2-(5-(1,2-dimethylheptyl)-resorcyl diacetate)]-10-hydroxy-pin-2-ene-10-pivalate] | 25 | > 50 mg/kg | > 50 mg/kg | – | – | –
CCCCCC(C)C(C)c1cc(O)c(C2C=C(CO)C3CC2C3(C)C)c(O)c1 (single isomer, unassigned) [VIIb(+), 4-Trans[2-(5-(1,2-dimethylheptyl)-resorcyl)]-10-hydroxy-pin-2-ene] | – | 30 mg/kg | – | 5 | – | 15
CCCCCCC(C)(C)c1cc(O)c(C2C=C(CO)C3CC2C3(C)C)c(O)c1 (single isomer, unassigned) [VIIa(+), 4-Trans-[2-(5-(1,1-dimethylheptyl)-resorcyl)]-10-hydroxy-pin-2-ene] | – | 30 mg/kg | – | 5 | – | 15
CCCCCCC(C)(C)c1cc(O)c(C2C=C(COC(C)=O)C3CC2C3(C)C)c(O)c1 (single isomer, unassigned) [VIa(+)] | – | 30 mg/kg | – | 10 | – | 35
CCCCCC(C)C(C)c1cc(O)c(C2C=C(CO)C3CC2C3(C)C)c(O)c1 (single isomer, unassigned) [VIIb(-), 4-Trans-[2-(5-(1,2-dimethyheptyl)-resorcyl)]-10-hydroxy-pin-2-ene] | 7 | 6 mg/kg | 25 mg/kg | – | – | –
CCCCCC(C)C(C)c1cc(OC(C)=O)c(C2C=C(COC(=O)C(C)(C)C)C3CC2C3(C)C)c(OC(C)=O)c1 (single isomer, unassigned) [VIIId(+), 4-trans-[2-(5-(1,2-dimethylheptyl)-resorcyl diacetate)]-10-hydroxy-pin-2-ene-10-pivalate] | – | – | – | 25 | > 50 | > 50
CCCCCC(C)C(C)c1cc(O)c(C2C=C(COC(=O)C(C)(C)C)C3CC2C3(C)C)c(O)c1 (single isomer, unassigned) [VId(-), 4-trans-[2-(5-(1,2-dimethylheptyl)-resorcyl)]-10-hydroxy-pin-2-ene, 10 pivalate] | < 10 | 10 mg/kg | 30 mg/kg | – | – | –
CCCCCC(C)C(C)c1cc(O)c(C2C=C(COC(C)=O)C3CC2C3(C)C)c(O)c1 (single isomer, unassigned) [VIb(-)] | 10 | 10 mg/kg | 25 mg/kg | – | – | –
CCCCCCC(C)(C)c1cc(O)c(C2C=C(COC(C)=O)C3CC2C3(C)C)c(O)c1 (single isomer, unassigned) [VIa(-)] | 10 | 10 mg/kg | 25 mg/kg | – | – | –
CCCCCCC(C)(C)c1cc(OC(C)=O)c(C2C=C(COC(=O)C(C)(C)C)C3CC2C3(C)C)c(OC(C)=O)c1 (single isomer, unassigned) [VIIIc(-)] | 25 | > 50 mg/kg | > 50 mg/kg | – | – | –
